The results in this text go back to patent US20210260009A1, “METHODS AND COMPOSITIONS FOR THE TREATMENT OF A RENAL DISEASE” (priority 2020, published 2021).

The subject of one assay is E. coli lysates. The assay is described as follows: Pull-down of S-sulfhydrated proteins from E. coli lysates (Coomassie / silver stain).
A further assay concerns WT E. coli cultures. Briefly: Indole in E. coli culture supernatants (Kovac's reagent and LC-MS/MS). In kind it is cell-based. To be noted: LB broth supplemented. Here is the method:
(§1) E. coli K-12 BW25113 strain were used in all the experiments (H2S production, indole production and in vivo experiments). For technical reasons, E. coli K-12 MG1655 was used in the cloning process to generate ΔdecR and tnaA-his, and E. coli K-12 W3110 was used for expressing and purifying TnaA-His. Bacteria were grown in LB broth (Merck) at 37° C. with shaking (250 rpm) aerobically or without shaking anaerobically and where mentioned, LB was supplemented with L-cysteine (Sigma-Aldrich), sodium hydrosulfide (Sigma-Aldrich) and/or L-tryptophan (Sigma-Aldrich). For selection on LB+Chloramphenicol (Cm) agar plates, a concentration of 10 μg/ml Cm was used. The E. coli tnaA739::kan strain was obtained from Yale University Coli Genetic Stock Center (CGSC) as part of the Keio collection (Baba et al., 2006). […]
The TMT fractions were analyzed by LC-MS3 on an Orbitrap Fusion™ Lumos™ Tribrid™ mass spectrometer. Labelled peptide samples were analyzed with an LC-MS3 data collection strategy (McAlister G C et al (2014) Anal. Chem. 86:7150-8) on an Orbitrap Fusion mass spectrometer (Thermo Fisher Scientific) equipped with a Thermo Easy-nLC 1200 for online sample handling and peptide separations. […] E. coli TnaA-His samples were analyzed at the Mass Spectrometry and Proteomics Resource Laboratory. […]

A further assay relates to E. coli. The assay is described as follows: E. coli sulfide (H2S) production from L-cysteine in culture (lead acetate, methylene blue) and growth. Format: cell-based. As to conditions: LB supplemented with cysteine, aerobic or anaerobic. Here is the method: as §1, with “used.” for “used. The E. coli tnaA739::kan strain was obtained from Yale University Coli Genetic Stock Center (CGSC) as part of the Keio collection (Baba et al., 2006).”
Lead acetate paper was prepared by incubating pre-cut Whatman paper in 20 mM lead acetate solution for 20 min at room temperature and then was dried for 20 min at 110° C. and kept in the dark (Hine and Mitchell, 2017). […] 200 μl were plated in 96-well plates in duplicate and analyzed by lead acetate sulfide assay as described above. […] The samples were vortexed briefly and incubated for 20 min at 37° C., thereafter they were centrifuged for 4 min at max speed and the supernatants were transferred to a 96-well plate to determine absorbance at OD670 nm. […] Then 300 μl of DPD/FeCl3 were added and the samples were incubated at 37° C. for 20 min, centrifuged for 4 min at max speed and absorbance was measured in OD670 nm. […]

Another assay deals with T1, E. coli TnaA (Escherichia coli, UniProt P0A853).
T1 construct: made in house; host or cells: E. coli K-12 carrying the chromosomal tnaA-his allele under its native promoter (W3110 for purification)
Briefly: TnaA S-sulfhydration by pull-down and Western blot (E. coli lysates, purified TnaA). Format: biochemical. The method, then: TnaA purity was determined by Coomassie blue staining.
A general note: Immunoblotting shows a protein as a band on a membrane.

For assay [1], the target named is T2, E. coli apo-tryptophanase (TnaA) (Escherichia coli, UniProt P0A853).
T2 construct: purchased Sigma-Aldrich
The assay is described as follows: In vitro tryptophanase assay (indole production by purified TnaA, Kovac's reagent). In kind it is biochemical. Here is the method:
E. coli apo-tryptophanase (Sigma-Aldrich) was resuspended in 1 ml 100 mM potassium phosphate pH 8 buffer, aliquoted and kept at −20° C. 5 μl of apo-tryptophanase were added to 120 μl of 100 mM potassium phosphate pH 8 buffer with 1 mM pyrodxal-5-phosphate (PLP) and various treatments (NaCl, NaHS, L-cysteine, DTT or Na2S4) and incubated for 45 min at 37° C. Then 125 μl of 100 mM potassium phosphate with 5 mM L-tryptophan were added and the samples were incubated for 1 h at 37° C. Then 250 μl of 20% TCA were added to the samples, followed by a 15 min incubation on ice to precipitate TnaA. […] For the WT and ΔdecR TnaA activity assay, TnaA was purified from 10 ml bacterial cultures grown for 3 h in LB and then supplemented with 5 mM L-cysteine for 1 h, using the His-Spin protein miniprep kit (Zymo research). The purified protein was diluted 1:10 in 250 μl of 100 mM potassium phosphate pH 8 buffer with 1 mM PLP and 5 mM L-tryptophan and incubated for 1 h at 37° C., further processing was performed as mentioned above. TnaA activity was normalized to purified protein concentration, measured using BCA assay kit (Thermo Fisher).

Where [2] appears, read: treated E. coli lysates, Western blot.

T1 sequence (P0A853 other isoform, or with tags, fused parts or gaps): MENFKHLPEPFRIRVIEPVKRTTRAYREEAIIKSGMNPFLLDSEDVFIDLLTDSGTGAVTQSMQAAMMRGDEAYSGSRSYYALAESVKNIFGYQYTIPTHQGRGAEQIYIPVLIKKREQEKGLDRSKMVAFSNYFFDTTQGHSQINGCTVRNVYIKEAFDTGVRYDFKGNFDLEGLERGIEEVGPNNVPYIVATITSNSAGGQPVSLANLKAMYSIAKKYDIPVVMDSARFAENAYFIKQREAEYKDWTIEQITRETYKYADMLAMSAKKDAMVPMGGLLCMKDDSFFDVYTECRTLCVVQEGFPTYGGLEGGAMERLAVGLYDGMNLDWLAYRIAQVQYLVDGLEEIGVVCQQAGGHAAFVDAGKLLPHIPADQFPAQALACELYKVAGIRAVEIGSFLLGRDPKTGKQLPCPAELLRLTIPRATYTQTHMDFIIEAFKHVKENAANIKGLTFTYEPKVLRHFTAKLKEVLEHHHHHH
T2 sequence (P0A853 whole entry): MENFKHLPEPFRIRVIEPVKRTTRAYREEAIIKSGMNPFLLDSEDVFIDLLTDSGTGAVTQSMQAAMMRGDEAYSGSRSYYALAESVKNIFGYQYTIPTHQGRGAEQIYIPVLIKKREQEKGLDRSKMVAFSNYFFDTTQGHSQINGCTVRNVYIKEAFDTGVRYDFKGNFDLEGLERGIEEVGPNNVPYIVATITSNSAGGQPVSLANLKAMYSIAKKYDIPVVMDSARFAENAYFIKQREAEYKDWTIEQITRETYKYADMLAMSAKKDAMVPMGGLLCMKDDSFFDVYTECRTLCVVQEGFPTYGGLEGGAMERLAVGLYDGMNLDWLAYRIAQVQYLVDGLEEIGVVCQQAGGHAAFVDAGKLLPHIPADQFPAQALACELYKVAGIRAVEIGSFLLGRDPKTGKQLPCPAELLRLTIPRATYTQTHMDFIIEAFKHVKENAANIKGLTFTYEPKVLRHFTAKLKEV

In the case of `N[C@@H](CS)C(=O)O` [cysteine, L-cysteine], the S-sulfhydration of proteins entry in the assay with E. coli lysates (lysates of E. coli grown in supplemented media vs LB alone) is “higher level of S-sulfhydration”. The “indole concentrations in the supernatants” value in the assay with WT E. coli cultures is recorded as “reduced indole concentrations”. Further, the E. coli growth entry with E. coli is “without any effects on growth”. The “sulfide production by E. coli” value in the assay with E. coli (lead acetate assay) is on record as “dose-dependent manner”.

For the compound `OO` [H2O2], the S-sulfhydration of proteins entry with E. coli lysates (treatment of bacterial lysates) is listed as “reduced the detection of S-sulfhydration proteins”. Also, the “TnaA S-sulfhydration” value on E. coli TnaA (setting [2]) was “reduced”.

`[Na+].[Na+].[S-]SS[S-]` [Na2S4, disodium tetrasulfide]: the “reduction of TnaA enzymatic activity” value in assay [1] is given as 60%. The “TnaA S-sulfhydration” value on E. coli TnaA (purified E. coli TnaA, incubation) is “led to TnaA S-sulfhydration”.

For the compound `O[C@H](CS)[C@H](O)CS` (racemic) [DTT, dithiothreitol], the “increase of TnaA activity” value in assay [1] (assay control) is reported as 318%.

On to `S` [NaHS, sodium hydrosulfide], for which, in the assay on E. coli lysates (treatment of bacterial lysates), the S-sulfhydration of proteins result is “induced higher S-sulfhydration levels”. The “indole concentrations in the supernatants” value in the assay on WT E. coli cultures is “reduced indole concentrations”. In addition, the “TnaA S-sulfhydration” value on E. coli TnaA (setting [2]) is listed as “increased”.
